{"source": "patent US20060228333A1", "about": "“Methods for control of tumors and chronic infections by modulating immunologically informed carriers homing to tolerogenic organs or tissues” (priority 2004, published 2006)", "tested_on": "thymus (homing of Brown Norway rat PBMCs)", "assay": "Thymic homing of injected donor PBMCs after drug treatment (homed cell counting in sliced thymus)", "format": "in vivo, Lewis rats", "settings": "for Thymic homing (cell number): control 6580; for Thymic homing compared with control and other treated groups: doses as in Table 1; for Activation of the epithelial cells of the thymus: stated in discussion of Example 1", "method": "Inbred male Lewis rats (LW, RT1l) were injected intramuscularly with rapamycine (RAPA; 0.1 mg/kg/d), tacrolimus (TAC; 0.2 mg/kg/d), cyclosporine A (CsA; 10 mg/kg), PGE 1 (32 ug/kg or 10 ug/kg) or a control.\nOne hour after the above treatments, 1.2-1.6×10^7 peripheral blood mononuclear cells (PBMCs) were obtained from Brown Norway rats (BN, RT1n). The cells were stained with IUBD and then injected intraperitoneally. 24 hours after cellular inoculation, the animals were sacrificed. A thymectomy was performed, the thymus was sliced and homed cell counting was performed. Homed cells may be counted by any method known to one of skill in the art. In this case, as the cells were stained before inoculation, the homed cells in the thymus were identified by the staining. The results of the cell counting are presented in Tables 1 and 2 for each treatment group: […]", "key": {"[1]": {"settings": "Lewis rats, i.m. RAPA 0.1 mg/kg/d, TAC 0.2 mg/kg/d, CsA 10 mg/kg, 1.2-1.6 × 10^7 BN PBMCs i.p. one hour later, thymus counted 24 hours after inoculation"}}, "data": [{"molecule": "C=CC[C@@H]1/C=C(\\C)C[C@H](C)C[C@H](OC)[C@H]2O[C@@](O)(C(=O)C(=O)N3CCCC[C@H]3C(=O)O[C@H](/C(C)=C/[C@@H]3CC[C@@H](O)[C@H](OC)C3)[C@H](C)[C@@H](O)CC1=O)[C@H](C)C[C@@H]2OC", "note": "[FK506, tacrolimus]", "values": [{"measurement": "Thymic homing (cell number)", "setting": "[1]", "result": 2360}, {"measurement": "Thymic homing compared with control and other treated groups", "result": "inactivated PBMCs that homed to the thymus"}, {"measurement": "Activation of the epithelial cells of the thymus", "result": "do activate"}]}, {"molecule": "CCCCC[C@H](O)/C=C/[C@H]1[C@H](O)CC(=O)[C@@H]1CCCCCCC(=O)O", "note": "[PGE1]", "values": [{"measurement": "Thymic homing (cell number)", "setting": "PGE1 10 ug/kg i.m., 1.6 × 10^7 donor cells injected, 24 hours", "result": 8890}, {"measurement": "Thymic homing (cell number)", "setting": "PGE1 32 ug/kg i.m., 1.6 × 10^7 donor cells injected, 24 hours", "result": 4680}, {"measurement": "Effect on epithelial cells and PBMCs", "setting": "PGE1 high dose 32 ug/kg", "result": "inactivated the epithelial cells as well as the PBMCs"}, {"measurement": "Thymic homing compared with low dose and control", "setting": "PGE1 high dose 32 ug/kg", "result": "less thymic homing than low doses"}]}, {"molecule": "CO[C@H]1C[C@@H]2CC[C@@H](C)[C@@](O)(O2)C(=O)C(=O)N2CCCC[C@H]2C(=O)O[C@H]([C@H](C)C[C@@H]2CC[C@@H](O)[C@H](OC)C2)CC(=O)[C@H](C)/C=C(\\C)[C@@H](O)[C@@H](OC)C(=O)[C@H](C)C[C@H](C)/C=C/C=C/C=C/1C", "note": "[RAPA, rapamycine]", "values": [{"measurement": "Thymic homing (cell number)", "setting": "[1]", "result": 920}]}, {"molecule": "cyclosporine A [CsA]", "values": [{"measurement": "Thymic homing (cell number)", "setting": "[1]", "result": 3365}, {"measurement": "Thymic homing compared with control and other treated groups", "result": "inactivated PBMCs that homed to the thymus"}, {"measurement": "Activation of the epithelial cells of the thymus", "result": "do activate"}]}]}
